Test results from patent US9827292B2, “Use of KGF in the treatment of menopausal disorders” (Università degli Studi di Roma “La Sapienza”, priority 2012, dated 2017).

Assays:
KGFR [1] = assay: KGFR mRNA expression by real-time PCR in MCF-7 cells; format: cell-based, human; conditions: E2 20 ng/ml, 24 h, normalised to 18s, FIG. 3B
Procedure: (§1) The oestrogen receptor α-positive MCF-7 human breast adenocarcinoma cell line, acquired from American Type Culture Collection (no. HTB-22, ATCC-LGC Promochem, Teddington, UK), was cultured in Dulbecco's modified eagle's medium (DMEM; Invitrogen, Karlsruhe, Germany), supplemented with 10% foetal bovine serum (FBS; Invitrogen) and antibiotics. Primary cultures of human oestrogen-sensitive keratinocytes (KCs) were established from 1 cm^2 full-thickness mucosal biopsy of the vaginal vestibule. Following enzymatic dissociation, the keratinocytes were seeded onto culture plates coated with collagen IV (10 mg/ml), as previously reported [Panici et al, 2007], and were maintained in basal medium of the keratinocytes (KBM, Lonza) supplemented with aliquots of KGM (Lonza), with medium change twice a week. […]
The cells were harvested and the total RNA was extracted with the use of TRIzol reagent (Invitrogen). cDNA was generated with oligo (dT) from 1 μg of RNA using the SuperScript III reverse transcriptase kit (Invitrogen). After reverse transcription, the abundance of KGFR in MCF-7 cells treated and untreated with E2 was quantified by Q-RT-PCR. […] Relative quantification was performed using mRNA 18s as an endogenous control. The data were expressed as a rise of mRNA of KGFR compared to the control.

[2] = Serum concentrations of E2 and KGF by ELISA in treated mice; format: in vivo, mouse; conditions: daily treatment for 60 days, ovariectomised mice, FIG. 7A
Procedure: The mouse strain CD1 was used in this study (Charles Rivers). The mice were held in a standard housing for laboratory animals with controlled lighting (12 h/day) and temperature (25±1° C.) and were provided with food and water ab libitum. All the experimental protocols concerning animals were in line with the Guidelines of Sapienza University for the care and use of laboratory animals and were approved by the Ethical Committee of the aforesaid institution. Forty female mice were subjected to an ovariectomy for the purpose of inducing vaginal atrophy and were administered a diet of Altromin C1000 without phytoestrogens (Altromin, Lage, Germany) for the duration of the experiments. After 30 days, the mice were treated locally, introducing daily into the vaginal canal 25 μl of hydrogel loaded with KGF (10 or 30 ng/day) or with E2 (30 ng/day or 1 μg/day). A control group was treated only with hydrogel. After 60 days of treatment, the mice were killed and the vaginas were immediately explanted, fixed in formalin and processed for histological analysis.
The concentrations of E2 and KGF in the serum of treated mice were measured using an ELISA standard kit (R & D Systems, Minneapolis, Minn., USA). The sensitivity of the ELISA assay was ≧10 pg/mL. Standard preparations of E2 or KGF were used as internal controls. The values are presented as mean±standard deviation. […]

KGFR [3] = assay: KGFR protein expression by Western blot in MCF-7 cells; format: cell-based, human; conditions: E2 20 ng/ml, 24 h, FIG. 3A
Procedure: as §1
(§2) MCF-7 cells untreated or treated with KGF or E2 were lysed in RIPA buffer. […] The bound antibody was detected by enhanced chemiluminescence detection reagents (Pierce Biotechnology, Inc, Rockford, Ill., USA), according to manufacturer's instructions. […] Densitometric analysis was performed using Quantity One Program (Bio-Rad Laboratories srl, Segrate, MI, Italy).

ER alpha = assay: Western blot of ER alpha phosphorylation (Ser118) in MCF-7 cells; format: cell-based, human; conditions: 20 ng/ml, FIG. 2D
Procedure: as §1, §2

| Molecule | KGFR mRNA expression compared to untreated cells (KGFR [1]) | release into the bloodstream (serum levels by ELISA) after local vaginal treatment [2] | KGFR protein level (KGFR [3]) | phosphorylation of ER alpha (Ser118) (ER alpha) |
| --- | --- | --- | --- | --- |
| C[C@]12CC[C@@H]3c4ccc(O)cc4CC[C@H]3[C@@H]1CC[C@@H]2O [E2, 17β-oestradiol] | 2.2 fold increase | reached the bloodstream even after treatment at low doses | a rise in the protein KGFR |  |
| keratinocyte growth factor (protein, listed as Homo sapiens, human recombinant KGF (Upstate Biotechnology)) MHKWILTWILPTLLYRSCFHIICLVGTISLACNDMTPEQMATNVNCSSPERHTRSYDYMEGGDIRVRRLFCRTQWYLRIDKRGKVKGTQEMKNNYNIMEIRTVAVGIVAIKGVESEFYLAMNKEGKLYAKKECNEDCNFKELILENHYNTYASAKWTHNGGEMFVALNQKGIPVRGKKTKKEQKTAHFLPMAIT |  |  |  | able to induce, equally to E2, phosphorylation of ER alpha |
